This is an account of results in US20260200926A1, “TREM2 MODULATORS” (Muna Therapeutics ApS, priority 2022, published 2026).

Counter-ions that a name gives are not always drawn. Like-named read-outs stand apart in the source and are kept apart here. Some results are limits rather than exact numbers.

The target of this test is T1, Human TREM2 (Homo sapiens, UniProt Q9NZC2).
T1 construct: expressed in transfected cells
The test is described as follows: Human TREM2 activity: cellular phosphorylation of Syk (AlphaLISA SureFire Ultra p-SYK) in HEK293/DAP12+TREM2 stable cell line. The following applies: for Emax: HEK293, read-out: Emax; for EC50: phospho-Syk AlphaLISA signal, HEK293/DAP12+TREM2 cells, concentration giving 50% of maximal response, read-out: EC50. It counts as cell-based. The source says:
Human TREM2, in vitro Measurement of Triggering Receptor Expressed on Myeloid Cells 2 activity using cellular phosphorylation of Spleen Tyrosine Kinase (“Syk”) Assay
HEK-293 cells were co-transfected with separate plasmids encoding TREM2 and DAP12 to generate a stable cell line. After antibiotic selection, functional clone pool analysis and two successive limiting dilutions, the final clone “HEK293/DAP12+TREM2” underwent a qPCR analysis and a pharmacological validation.
TREM2 signaling through DAP12 was monitored in the HEK293/DAP12+TREM2 stable cell line by measuring the phosphorylation levels of the Syk kinase using the commercially available AlphaLISA SureFire Ultra p-SYK (Tyr525/526) Assay Kit (PerkinElmer #ALSU-PSYK), based on the Perkin Elmer AlphaScreen/AlphaLISA technology.
Compounds are transferred to the test plate and tested in full dose response, 8 concentrations in quadruplicate data points. Compound serial dilutions were performed at Cybi-Felix instrument in 100% DMSO and the dose response curves were assembled in automated fashion in 384MPT at Hamilton STARlet instrument. All the stock solutions were prepared at 20 mM in 100% DMSO. For compounds testing, the starting concentration was 100 μM, dilution steps 1:6. […] Finally, a 384MPT reformatted for all compounds at 8 concentrations, quadruplicates, was used as “mother to child” process with a CyBi®-Well dispenser in which 1 μL of each compound was moved into a destination plate pre-filled with 65.6 μL of EMEM cell culture medium (BIOWHITTAKER_cat.BE12-125F), thus obtaining 3× concentrated compounds working solution. In columns 1-2 and 23-24 the control wells were added. In particular, dose response curves of a reference control agonist were included in column 1 and 24 as reference control agonist (Reference control agonists used include Human TREM2 polyclonal Antibody AF1828: R&D Systems; Human TREM2 monoclonal Antibody MAB1828: R&D Systems). The dose response curves were tested starting at 30 μM, dilution step 1:6. Both “source” compound plate and “destination” compound plate were barcoded and a relationship between the two plates was thus generated.
HEK293/DAP12+TREM2 cells were cultured in EMEM medium supplemented with IX Penicillin/Streptomycin (BIOWHITTAKER_cat.DE17-602E), ULTRAGLUTAMINE I 200 mM, 10% Fetal Bovine Serum plus antibiotics referred to as “HEK293 Culture Medium”. The day before the experiment, cells were detached by gentle wash with DPBS, followed by 5 min incubation at 37° C. with Trypsin solution. Cells were then diluted in HEK293 Culture Medium without antibiotics, counted and seeded into 384-well poly-D-Lysine coated microplates black/clear bottom (GREINER 781946) at a density of 10,000 cells/well in 25 μL/well by the use of a MATRIX WellMate dispenser. Plates were placed into a humidified cell culture incubator at 37° C. with 5% CO2 until the experimental day. 20-24 hours after seeding mature medium was removed and replaced with 10 μL/well of EMEM cell medium supplemented with 0.1% Pluronic F-68 non-ionic surfactant (Thermofisher, 24040032), referred to as “Assay Buffer”, using the CyBi®-Well instrument. Then 5 μL/well of Assay Buffer containing 3× concentrated test compounds or the reference control agonist (in 0.5% final DMSO concentration) were added to the cells with the CyBi®-Well instrument. Cell plates were incubated for 30 min into a humidified cell culture incubator at 37° C. with 5% CO2·, then the medium was removed by manually discard. 20 μL/well of lysis buffer were dispensed using the CyBi®-Well instrument and plates were incubated for 10 min at room temperature on a plate shaker (350 rpm). Then, 10 μL/well of lysate were transferred to the Alpha plates. The CyBi®-Well instrument was used to dispense 5 μL/well of AlphaLISA Acceptor Bead Solution in IX Immunoassay buffer (Perkin Elmer AL000F). Then the plates were sealed with Heat sealing foil, shaked for 2 minutes (350 rpm) and incubated for 1 hour at room temperature.
(In general: Bead proximity is the source of the signal in Alpha formats.)

Where [1] appears, read: maximal response relative to reference agonist example 1B (remaining examples).

T1 sequence (Q9NZC2 19-230): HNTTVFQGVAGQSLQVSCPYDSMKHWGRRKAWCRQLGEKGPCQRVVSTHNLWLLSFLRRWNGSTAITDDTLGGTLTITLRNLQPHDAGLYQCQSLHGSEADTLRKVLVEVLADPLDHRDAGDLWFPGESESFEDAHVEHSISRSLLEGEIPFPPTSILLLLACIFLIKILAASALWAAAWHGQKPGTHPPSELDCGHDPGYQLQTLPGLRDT
T1 sequence (O43914 22-113 partner): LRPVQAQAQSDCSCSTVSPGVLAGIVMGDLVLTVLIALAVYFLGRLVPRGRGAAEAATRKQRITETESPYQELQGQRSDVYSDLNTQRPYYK

For the compound `C[C@@H]1CN(c2nc(-c3ccc(F)cc3F)c3nc(C(F)(F)F)n(C)c(=O)c3n2)C[C@H](c2cnn(C3CC3)c2)O1` (single isomer, unassigned) [Example 183B], the EC50 is less than 1 nM. Further, under setting [1], the Emax was in the range of 75 to 110%.
With `Cc1cc([C@@H]2CN(c3nc(-c4ccc(F)cc4F)c4nc(C)n(C)c(=O)c4n3)CCO2)ccn1` (single isomer, unassigned) [Example 122A], the EC50 fell in the range of 1 to 10 nM. For the same compound, the Emax under setting [1] was 75 to 110%.
Consider `Cc1cc([C@@H]2CN(c3cc4c(=O)n(C)c(C)nc4c(-c4cc(F)c(F)cc4F)n3)CCO2)ccn1` (single isomer, unassigned) [Example 141A], for which the EC50 lay within 10 to 100 nM. For the same compound, under setting [1], the Emax was in the range of 75 to 110%.
The like results for `Cc1nc2c(-c3ccc(C(F)F)nc3)nc(N3C[C@@H](c4cnn(C5CC5)c4)O[C@@H](C)C3)cc2c(=O)n1C` (single isomer, unassigned) [Example 194A] were, in that order, 10 to 100 nM and 75 to 110%.
For the compound `Cc1cc([C@H]2C[C@@H](c3nc(-c4ccc(Cl)cc4F)c4nc(C)n(C)c(=O)c4n3)CCO2)ccn1` (single isomer, unassigned) [Example 94], the EC50 is 1 to 10 nM. The Emax under setting [1] lay within 75 to 110%.
Consider `Cc1cc([C@H]2CN(c3nc(-c4ccc(F)cc4F)c4nc(C)n(C)c(=O)c4n3)CC(F)(F)O2)ccn1` (single isomer, unassigned) [Example 169B], for which the 50% effective concentration (EC50) lay in the range of 10 to 100 nM. Under setting [1], the Emax lay in the range of 75 to 110%.
The like results for `Cc1cc([C@@H]2CN(c3nc(-c4cc(F)c(F)cc4F)c4nc(C)n(C)c(=O)c4n3)CCO2)ccn1` (single isomer, unassigned) [Example 123A] were, in that order, 1 to 10 nM and greater than 110%.
As to `Cc1nc2c(-c3ccc(Cl)cc3F)nc(N3CCOC(C)(C)C3)nc2c(=O)n1C` [Example 57, 8-(4-chloro-2-fluorophenyl)-6-(2,2-dimethylmorpholino)-2,3-dimethylpyrimido[5,4-d]pyrimidin-4(3H)-one], the EC50 was greater than 1000 nM. Moreover, the Emax under setting [1] is less than 75%.
Turning to `Cc1nc2c(-c3ccc(Cl)cc3F)nc(N3CCOC(C)(c4cnn(C)c4)C3)nc2c(=O)n1C` (centres unmarked) [Example 55, 8-(4-chloro-2-fluorophenyl)-2,3-dimethyl-6-(2-methyl-2-(1-methyl-1H-pyrazol-4-yl)morpholino)pyrimido[5,4-d]pyrimidin-4(3H)-one], the EC50 is greater than 1000 nM. Moreover, under setting [1], the Emax was less than 75%.
In the case of `C[C@H]1CN(c2nc(-c3ccc(F)cc3F)c3nc(C(F)(F)F)n(C)c(=O)c3n2)C[C@@H](c2cnn(C3CC3)c2)O1` (single isomer, unassigned) [Example 183A], the EC50 fell in the range of 1 to 10 nM. In addition, under setting [1], the maximum response (Emax) was in the range of 75 to 110%.
Regarding `Cn1cc([C@@H]2CN(c3nc(-c4ccc(F)cc4F)c4nc(C(F)(F)F)n(C)c(=O)c4n3)CC3(CC3)O2)cn1` (single isomer, unassigned) [Example 165A], the EC50 lay within 1 to 10 nM. For the same compound, under setting [1], the Emax was 75 to 110%.
With `Cc1cc([C@H]2CN(c3cc4c(=O)n(C)c(C)nc4c(-c4ccc(F)cc4F)n3)CC(F)(F)O2)ccn1` (single isomer, unassigned) [Example 171B], the EC50 was in the range of 100 to 1000 nM. Further, under setting [1], the Emax was less than 75%.
The like results for `Cc1nc2c(-c3ccc(Cl)cc3F)nc(N3C[C@H](c4cnn(C)c4)OC4(CC4)C3)nc2c(=O)n1C` (single isomer, unassigned) [Example 108B] were, in that order, 100 to 1000 nM and less than 75%.
In the case of `Cn1cc([C@H]2CN(c3nc(-c4cc(F)c(F)cc4F)c4nc(C(F)(F)F)n(C)c(=O)c4n3)CC3(CC3)O2)cn1` (single isomer, unassigned) [Example 162B], the EC50 was in the range of 10 to 100 nM. Further, the Emax under setting [1] was less than 75%.
Take `Cc1nc2c(-c3ccc(Cl)cc3F)nc([C@@H]3C[C@H]3c3cnn(C)c3)cc2c(=O)n1C` (single isomer, unassigned) [Example 148B]: the EC50 was greater than 1000 nM. In addition, under setting [1], the Emax is less than 75%.
The like results for `Cc1nc2c(-c3cc(F)c(F)cc3F)nc(N3CCO[C@H](c4cnn(C)c4)C3)cc2c(=O)n1C` (single isomer, unassigned) [Example 130B] were, in that order, 100 to 1000 nM and less than 75%.
In the case of `Cc1nc2c(-c3ccc(Cl)cc3F)nc(N3CCOC(c4cnn(C)c4)C3)nc2c(=O)n1C` (centres unmarked) [Example 1, 8-(4-chloro-2-fluorophenyl)-2,3-dimethyl-6-(2-(1-methyl-1H-pyrazol-4-yl)morpholino)pyrimido[5,4-d]pyrimidin-4 (3H)-one], the EC50 lay in the range of 10 to 100 nM. Besides, the Emax (maximal response relative to reference agonist human TREM2 MAB1828 (examples 1, 1A and 1B)) was 75 to 110%.
For `Cc1nc2c(-c3cc(F)c(F)cc3F)nc(N3CCO[C@@H](c4cnn(C)c4)C3)cc2c(=O)n1C` (single isomer, unassigned) [Example 130A], the EC50 was in the range of 10 to 100 nM. Besides, the Emax under setting [1] was less than 75%.
Consider `Cc1cc([C@H]2C[C@@H](c3cc4c(=O)n(C)c(C)nc4c(-c4ccc(F)cc4F)n3)C[C@@H](C)O2)ccn1` [Example 185], for which the EC50 is 1 to 10 nM. In addition, the Emax under setting [1] lay within 75 to 110%.
The like results for `Cc1n[nH]c(C2CN(c3nc(-c4ccc(Cl)cc4F)c4nc(C)n(C)c(=O)c4n3)CCO2)n1` (centres unmarked) [Example 46, 8-(4-chloro-2-fluorophenyl)-2,3-dimethyl-6-(2-(3-methyl-1H-1,2,4-triazol-5-yl)morpholino)pyrimido[5,4-d]pyrimidin-4(3H)-one] were, in that order, 100 to 1000 nM and less than 75%.
Take `Cc1nc2c(-c3ccc(Cl)cc3F)nc(N3CCN(CC(F)(F)F)C(c4cnn(C)c4)C3)nc2c(=O)n1C` (centres unmarked) [Example 33, 8-(4-chloro-2-fluorophenyl)-2,3-dimethyl-6-(3-(1-methyl-1H-pyrazol-4-yl)-4-(2,2,2-trifluoroethyl)piperazin-1-yl)pyrimido[5,4-d]pyrimidin-4(3H)-one]: the EC50 was in the range of 10 to 100 nM. Further, the Emax under setting [1] was less than 75%.
As for `Cc1nc2c(-c3ccc(Cl)cc3F)nc(N3CCOC(c4cnn(C5CNC5)c4)C3)nc2c(=O)n1C` (centres unmarked) [Example 41, 6-(2-(1-(azetidin-3-yl)-1H-pyrazol-4-yl)morpholino)-8-(4-chloro-2-fluorophenyl)-2,3-dimethylpyrimido[5,4-d]pyrimidin-4 (3H)-one hydrochloride salt], the EC50 is 100 to 1000 nM. Under setting [1], the Emax fell in the range of 75 to 110%.
`Cc1nc2c(-c3ccc(Cl)cc3F)nc(N3C[C@@H](c4cnn(C)c4)OC4(CCC4)C3)nc2c(=O)n1C` (single isomer, unassigned) [Example 109A]: the EC50 lay in the range of 1 to 10 nM. Also, the Emax under setting [1] fell in the range of 75 to 110%.
Consider `Cc1nc2c(-c3cc(F)c(F)cc3F)nc(N3C[C@@H](c4cnn(C)c4)OC4(CCC4)C3)cc2c(=O)n1C` (single isomer, unassigned) [Example 152A], for which the EC50 is 100 to 1000 nM. Also, the Emax under setting [1] was 75 to 110%.
Take `Cc1nc2c(-c3ccc(Cl)cc3F)nc(N3CCOC(CN(C)C)C3)nc2c(=O)n1C` (centres unmarked) [Example 53, 8-(4-chloro-2-fluorophenyl)-6-(2-((dimethylamino)methyl)morpholino)-2,3-dimethylpyrimido[5,4-d]pyrimidin-4(3H)-one]: the EC50 was 100 to 1000 nM. Besides, under setting [1], the Emax lay within 75 to 110%.

A word on the Emax: it is the greatest response seen or fitted, relative to the assay's reference. Usually EC50 stands for the concentration at which the effect is half-maximal.
